Paper PMC6213599 (Marine Drugs, 2018)
≈ marks a conversion by molar mass, not a printed value. Read-outs that look alike come from different tables or passages of the source. Non-standard residues stand in square brackets, D forms with d. Residues, ends and D or L forms follow the SMILES beside them. Hyp = O=C(O)[C@@H]1C[C@@H](O)CN1

Legend:
NA [1] = conditions: cited from earlier work
Description: (§1) To determine the mode of action of the NA-inhibitory peptide, a Lineweaver–Burk kinetic model was used to explore the relationship between the reaction rate and the substrate concentration.

NA [2] = conditions: no reference given; cited from earlier work
Description: as §1

[3] = biological target: T1, Influenza virus H1N1 neuraminidase (NA) (Influenza A virus, UniProt P03468); assay: NA inhibition mode, Lineweaver–Burk kinetics; type: biochemical; conditions: Lineweaver–Burk plot
T1 sequence (P03468 whole entry, looked up): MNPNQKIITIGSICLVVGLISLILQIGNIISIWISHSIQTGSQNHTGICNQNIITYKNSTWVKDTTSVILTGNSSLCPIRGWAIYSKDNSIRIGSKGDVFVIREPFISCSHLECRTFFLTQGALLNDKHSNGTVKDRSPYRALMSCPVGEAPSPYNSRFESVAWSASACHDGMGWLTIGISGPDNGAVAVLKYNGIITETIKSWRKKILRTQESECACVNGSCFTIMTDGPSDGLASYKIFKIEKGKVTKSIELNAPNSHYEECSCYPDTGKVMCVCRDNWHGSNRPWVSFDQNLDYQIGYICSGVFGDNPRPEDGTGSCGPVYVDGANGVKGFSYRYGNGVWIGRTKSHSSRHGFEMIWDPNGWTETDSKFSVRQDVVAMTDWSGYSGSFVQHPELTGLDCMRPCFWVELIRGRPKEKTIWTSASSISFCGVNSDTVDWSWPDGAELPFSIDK
Method: The mode of NA inhibition was determined according to the previous method with slight modifications. Various concentrations of MUNANA (1.25, 2.5, 5, 10 and 20 μM) were incubated with NA in the absence or presence (0–2.5 mg/mL) of the peptide P at 37 °C. The inhibition kinetics of NA in the presence of peptide P was determined based on the Lineweaver–Burk plot. The inhibitor constant Ki was calculated by plotting 1/Vmax versus the concentrations of peptide P.

MDCK cells = assay: Cytotoxicity test by MTT assay; type: cell-based, canine; conditions: 48 h
Method: The MTT assay was used to determine the effect of the peptide on the viability of MDCK cells. The 96-well plates were used to culture the MDCK cells. After adding 10 μL of PBS containing MTT (0.5 mg/mL) into each well, the solution was incubated at 37 °C for 4 h. After removing the supernatant, 200 μL of DMSO was added into each well. The optical density (OD) for each well was determined at 570 nm. The IC50 was calculated as the concentration of the sample at which the number of viable cells was decreased to 50% of that in the cell control.

[4] = system: pepsin, chymotrypsin, trypsin; assay: Simulated in vitro gastrointestinal digestion, NA inhibition read-out; type: in vitro ADME; conditions: 10 mg/mL, pepsin pH 2.0, 37 °C, 2 h, then chymotrypsin pH 7.5, 37 °C, 1 h, three replicates
Method: Simulated digestion assay was performed according to the previous method with slight modifications. The NA-inhibitory peptide was dissolved in deionized water to prepare 10 mg/mL solution. The pH was adjusted to 2.0 with 1 mol/L HCl and then pepsin (2.86% of the substrate, dry basis) was added. Digestion was performed at 37 °C for 2 h, followed by boiling for 10 min to stop the enzyme activation. Subsequently, the pH was adjusted to 7.5 with 0.2 mol/L NaOH. After adding chymotrypsin (4.00% of substrate, dry basis), the reaction was carried out at 37 °C for 1 h. The sample was submerged in a 95 °C water bath for 10 min to terminate the enzymatic digestion and cooled on ice to room temperature. Then, trypsin (4.00% of substrate, dry basis) was added, and the above steps were repeated. Afterwards, the digested mixtures were centrifuged at 10,000× g for 10 min to obtain the digestive juices. The NA inhibition assay in digestive juices was detected as described above.

[5] = biological target: T1, Influenza virus H1N1 neuraminidase (NA); type: biochemical; conditions: relative to hydrolysates (<5000 Da), from the IC50 values
[6] = system: influenza virus A/Puerto Rico/8/1934 (H1N1) in MDCK cells
[7] = system: influenza virus A/Puerto Rico/8/1934 (H1N1) in MDCK cells; remark: listed apart in the source
[8] = system: influenza virus H1N1 (HA titer, chicken red blood cells); set-up: species or system influenza A H1N1 virus
ACE = conditions: cited from earlier work
[9] = influenza virus A/Puerto Rico/8/1934 in MDCK cells, 1 h, 250 μg/mL

For “2-hydroxy-3-methyl-3-butenyl alkyl [HMB]”, the “Mode of NA inhibition” value (NA [1]) is given as “non-competitive”, the IC50 (NA [1]; read-out: IC50 for NA) is given as 12.3 µM and the Ki (NA [1]; read-out: Ki for NA) is given as 14 ± 1.5 µM.

In the case of `CCOC(=O)C1=C[C@@H](OC(CC)CC)[C@H](NC(C)=O)[C@@H](N)C1` [oseltamivir], the “Mode of NA inhibition” value (NA [2]) is given as “competitive”.

With `CC(C)C[C@H](NC(=O)CNC(=O)[C@H](CCC(N)=O)NC(=O)[C@@H]1CCCN1C(=O)CNC(=O)[C@@H]1C[C@@H](O)CN1C(=O)[C@@H](NC(=O)CNC(=O)[C@@H]1C[C@@H](O)CN1C(=O)[C@@H]1CCCN1C(=O)CNC(=O)[C@H](C)NC(=O)[C@@H](NC(=O)CNC(=O)[C@H](C)NC(=O)[C@H](CCC(=O)O)NC(=O)CNC(=O)[C@H](CO)NC(=O)[C@@H]1CCCN1C(=O)CNC(=O)[C@H](CCCCN)NC(=O)[C@H](CCC(=O)O)NC(=O)CNC(=O)[C@@H]1C[C@@H](O)CN1)[C@@H](C)O)[C@@H](C)O)C(=O)O` [peptide P] (H-[Hyp]GEKGPSGEAGTAGP[Hyp]GT[Hyp]GPQGL-OH; N-terminus and C-terminus assumed) the “Mode of NA inhibition” value [3] was “competitive”, the “Cytotoxicity in MDCK cells” value (MDCK cells; concentration of 250 μg/mL or less (p > 0.05)) was “no significant cytotoxicity” and the “Viability of MDCK cells” value (MDCK cells; concentrations over 250 μg/mL (p < 0.05)) was “significantly reduced the viability”. For the same compound, the “NA-inhibitory activity after simulated in vitro gastrointestinal digestion” value [4] was “significantly decreased”, the “NA-inhibitory activity after simulated in vitro gastrointestinal digestion” value ([4]; listed as NA-inhibitory peptide) was “almost inactivated” and the “Purification Fold” value [5] was 7.19. The “Inhibition rate, added after the infection (after-adsorption)” value [6] was “approximately 31.5%”, the “Inhibition ratio, during viral adsorption” value [6, 9] was 58% and the “Inhibition ratio, pretreatment (added before viral adsorption)” value [6, 9] was 73%. The “Effect on cytopathic effect (CPE)” value [7] was “significantly reduced the cytopathic effect”, the “EC50 against H1N1” value ([7]; influenza virus A/Puerto Rico/8/1934 in MDCK cells, 48 h) was 471 ± 12 µg/mL (≈ 218 µM) and the “Inhibition of H1N1” value ([7]; influenza virus A/Puerto Rico/8/1934 in MDCK cells, 48 h, 250 μg/mL) was 42%. The “HA titer of the virus” value [8] was “significantly reduce the virus titer”.

In the case of `NC(=O)c1ncn([C@@H]2O[C@H](CO)[C@@H](O)[C@H]2O)n1` [ribavirin, Ribavirin, reference compound], the “Inhibition ratio, positive control” value ([6]; positive control in the time-of-addition experiment) is reported as 75%.

For Trp-Leu, the “ACE inhibitory activity after simulated digestion” value (ACE) is given as “completely preserved”.
